Experimental findings from patent publication US9079888B2, “Compounds as histamine H3 receptor ligands” (Suven Life Sciences Limited, priority 2011, dated 2015) are described below.

One data set in a line: in vivo. The settings on record: male, Wistar, rat, po, 3 mg/kg.
In data set [1] the test system is Scopolamine Induced amnesia. Briefly: Morris Water Maze. The data set is classed as in vivo, rats. The settings on record: rat, active dose p.o. As to the method:
(§1) The cognition enhancing properties of compounds of this invention were estimated by using this model.
The water maze apparatus consisted of a circular pool (1.8 m diameter, 0.6 m high) constructed in black Perspex (TSE systems, Germany) filled with water (24±2° C.) and positioned underneath a wide-angled video camera to track animal. The 10 cm^2 perspex platform, lying 1 cm below the water surface, was placed in the centre of one of the four imaginary quadrants, which remained constant for all rats. The black Perspex used in the construction of the maze and platform offered no intramaze cues to guide escape behavior. By contrast, the training room offered several strong extramaze visual cues to aid the formation of the spatial map necessary for escape learning. An automated tracking system, [Videomot 2 (5.51), TSE systems, Germany] was employed. This program analyzes video images acquired via a digital camera and an image acquisition boards that determined path length, swim speed and the number of entries and duration of swim time spent in each quadrant of the water maze.

For data set [2] the following is noted: male, Wistar, rat, in vivo.
Experimental: (§2) Male Wistar rats (230-280 grams) obtained from NIN (National Institute of Nutrition, Hyderabad, India) were used as an experimental animal. Three animals were housed in each cage. Animals were kept fasted over night and maintained on a 12 hours light/dark cycle. Three rats were dosed New chemical entity (NCE) orally (3 or 10 mg/kg) and intravenously (1 or 5 mg/kg) on day 0 and day 2.
(§3) At each time point blood was collected by jugular vein. Blood was stored at 2-8° C. until analysis. The concentrations of the NCE compound in blood were determined using LC-MS/MS method. Schedule time points: Pre dose 0.08, 0.25, 0.5, 1, 2, 4, 6, 8 and 24 hours after dosing (n=3). The NCE compounds were quantified in blood by partially validated LC-MS/MS method using acetonitrile precipitation technique. […] Study samples were analyzed using calibration samples in the batch and quality control samples spread across the batch.
(§4) Pharmacokinetic parameters were calculated by non-compartmental model using software WinNonlin version 5.0.1.
A further data set relates to Male Wister rats. Briefly: Object Recognition Task Model. Format: in vivo. As to conditions: rat; for Exploration time mean ± S.E.M, Familiar object / Exploration time mean ± S.E.M, Novel object: choice trial T2 24 h after T1. As to the method: as §1
Male Wister rats (230-280 grams) obtained from N. I. N. (National Institute of Nutrition, Hyderabad, India) was used as experimental animals. Four animals were housed in each cage. Animals were kept on 20% food deprivation before one day and given water ad libitum throughout the experiment and maintained on a 12 hours light/dark cycle. Also the rats were habituated to individual arenas for 1 hour in the absence of any objects.
One group of 12 rats received vehicle (1 mL/Kg) orally and another set of animals received compound of the formula (I) either orally or i.p., before one hour of the familiar (T1) and choice trial (T2).
The experiment was carried out in a 50×50×50 cm open field made up of acrylic. In the familiarization phase, (T1), the rats were placed individually in the open field for 3 minutes, in which two identical objects (plastic bottles, 12.5 cm height×5.5 cm diameter) covered in yellow masking tape alone (a1 and a2) were positioned in two adjacent corners, 10 cms from the walls. After 24 hours of the (T1) trial for long-term memory test, the same rats were placed in the same arena as they were placed in T1 trial. Choice phase (T2) rats were allowed to explore the open field for 3 minutes in presence of one familiar object (a3) and one novel object (b) (Amber color glass bottle, 12 cm high and 5 cm in diameter). Familiar objects presented similar textures, colors and sizes. During the T1 and T2 trial, explorations of each object (defined as sniffing, licking, chewing or having moving vibrissae whilst directing the nose towards the object at a distance of less than 1 cm) were recorded separately by stopwatch. Sitting on an object was not regarded as exploratory activity, however, it was rarely observed.
T1 is the total time spent exploring the familiar objects (a1+a2).
T2 is the total time spent exploring the familiar object and novel object (a3+b).
The object recognition test was performed as described by Ennaceur, A., Delacour, J., 1988, A new one-trial test for neurobiological studies of memory in rats—Behavioural data, Behay. Brain Res., 31, 47-59.

A short description of data set [3]: Rodent Brain Penetration Study. Format: in vivo, Male Wister rats. The settings on record: brain / whole blood; Wistar/Male rat, Per Oral, 3 mg/kg, vehicle water; read-out: Brain Penetration Ratio (Cbrain/Cblood). As to the method:
Three animals were housed in each cage. Animals were given water and food ad libitum throughout the experiment, and maintained on a 12 hours light/dark cycle.
New chemical entity (NCE) was dissolved in suitable vehicle and administered orally (3 or 10 mg/kg). […] Blood and brain tissue were collected and brain was homogenized to yield 20% w/v. Blood was stored at 2-8° C. and brain homogenate was frozen at −20° C. until analysis. The concentrations of NCE in blood and brain were quantified using LC-MS/MS method.
Extents of brain-blood ratio were calculated (Cbrian/Cblood)

The target in data set [4] is Human or Rat Histamine H3 Receptor. Briefly: Binding assay for human or rat Histamine H3 receptor ([3H] R-α-methylhistamine displacement). The settings on record: radioligand [3H] R-α-methylhistamine 3.0 nM; receptor source rat brain frontal cortex or recombinant human cDNA in CHO cells (table does not say which). As to the method:
The reaction was terminated by rapid vacuum filtration onto the glass fiber filters. Radioactivity trapped onto the filters was determined and compared to the control values in order to ascertain any interactions of the test compound(s) with either cloned human or rat receptor binding site.

Data set [5] can be described thus: Rodent Pharmacokinetic Study. As to conditions: male, Wistar, rat, whole blood.
Experimental: as §2, §3, §4

Like-named read-outs stand apart in the source and are kept apart here.

Experimental for in vivo: as §2, §3, §4

A word on the Cmax: it is the maximum level reached in the sampled fluid or tissue. The term Tmax denotes the time from dosing to the highest level. For orientation: bioavailability means dose-corrected exposure relative to a reference, in per cent. Read a high bioavailability as good availability. Take `Cl.Cl.O=C(CN1CCOCC1)Nc1ccc(OC2CCN(C3CCC3)CC2)cc1` [Example 1, N-[4-(1-Cyclobutylpiperidin-4-yloxy)phenyl]-2-(morpholin-4-yl)-acetamide dihydrochloride]: in the data set “in vivo”, the concentration peaked (Cmax) at 0.349 ± 0.035 µg/mL, the Tmax was 25.2 ± 8.4 min and the bioavailability is 79 ± 11%. Also, the “Reversal of Scopolamine Induced amnesia” value in data set [1] is recorded as “≦1 mg/kg, p.o”. The compound also gave an AUCt in data set [2] (iv, 1 mg/kg) of 0.263 ± 0.021 µg·h/mL. For the same compound, in data set [2] (po, 3 mg/kg), the AUCt stood at 0.626 ± 0.118 µg·h/mL. In the data set on Male Wister rats (0.3 mg/kg p.o.), the Inference entry was “Active”; the “Exploration time mean ± S.E.M, Familiar object” value was determined as 5.56 ± 0.81 s; the “Exploration time mean ± S.E.M, Novel object” value turned out to be 15.36 ± 1.74 s. Moreover, the Kp in data set [3] worked out at 0.93 ± 0.05.

What is called Ki is a dissociation constant, usually derived from enzyme kinetics or from competition with a known ligand. Broadly, the AUC(0-t) is exposure summed from dosing to a finite time, without extrapolation to infinity. Low values mean low exposure, high ones high exposure. The half-life is the time in which the quantity being followed falls by half. Turning to `Cl.Cl.O=C(CN1CCOCC1)Nc1ccc(OC2CCN(C3CCC3)CC2)cc1F` [Example 3, N-[4-(1-Cyclobutylpiperidin-4-yloxy)-2-fluorophenyl]-2-(morpholin-4-yl)acetamide dihydrochloride], the Ki in data set [4] stood at 0.0149 µM. Also, in the data set on Male Wister rats (3 mg/kg p.o.), the Inference entry is “Active”; the “Exploration time mean ± S.E.M, Familiar object” value is 6.77 ± 0.44 s; the “Exploration time mean ± S.E.M, Novel object” value turned out to be 12.49 ± 1.59 s. Besides, in data set [5] (iv, 1 mg/kg), the AUC(0-t) turned out to be 0.173 ± 0.06 µg·h/mL and the half-life is 33.6 ± 11.4 min. Also, in data set [5] (po, 3 mg/kg), the AUC(0-t) was found to be 0.174 ± 0.043 µg·h/mL, the Cmax was found to be 0.129 ± 0.034 µg/mL, the Tmax came out at 25.2 ± 8.4 min and the bioavailability was determined as 35 ± 5%. Further, the half-life in data set [5] (po, 3 mg/kg) is 87.6 ± 45 min. Moreover, the Kp in data set [3] amounted to 2.07 ± 0.07.

For `CC(=O)N(CCN1CCOCC1)c1ccc(OC2CCN(C3CCC3)CC2)cc1F` [Example 37, N-[4-(1-Cyclobutylpiperidin-4-yloxy)-2-fluorophenyl]-N-[2-(morpholin-4-yl)-ethyl] acetamide], in data set [4], the Ki came out at 0.00973 µM. In the data set on Male Wister rats (3 mg/kg p.o.), the Inference result was “Active”; the “Exploration time mean ± S.E.M, Familiar object” value was determined as 5.53 ± 1.67 s; the “Exploration time mean ± S.E.M, Novel object” value stood at 14.18 ± 2.04 s. Moreover, in data set [5] (iv, 1 mg/kg), the AUC(0-t) was determined as 0.068 ± 0.002 µg·h/mL and the half-life was 198 ± 25.2 min. Moreover, in data set [5] (po, 3 mg/kg), the AUC(0-t) was 0.064 ± 0.016 µg·h/mL, the Cmax amounted to 0.027 ± 0.011 µg/mL, the Tmax came out at 30 min and the bioavailability came to 32 ± 8%. This compound also showed a half-life in data set [5] (po, 3 mg/kg) of 215 ± 25.8 min. For the same compound, the Kp in data set [3] was 1.24 ± 0.18.
